Data on one molecule can be found in ChEMBL document CHEMBL3352614, “MoGAT-2 Inhibitors May Provide Effective Treatment for Hypertriglyceridemia” (ACS Med Chem Lett, 2014).

The target in this experiment is 2-acylglycerol O-acyltransferase 2 (Homo sapiens, UniProt Q3SYC2). Description: Inhibition of human MoGAT-2 expressed in human Caco2 cells assessed as inhibition of 2-O-Hexadecylglycerol […] pretreated for 30 mins by LC-MS analysis. In kind it is cell-based, Caco-2.
2-acylglycerol O-acyltransferase 2, sequence (Q3SYC2 whole entry): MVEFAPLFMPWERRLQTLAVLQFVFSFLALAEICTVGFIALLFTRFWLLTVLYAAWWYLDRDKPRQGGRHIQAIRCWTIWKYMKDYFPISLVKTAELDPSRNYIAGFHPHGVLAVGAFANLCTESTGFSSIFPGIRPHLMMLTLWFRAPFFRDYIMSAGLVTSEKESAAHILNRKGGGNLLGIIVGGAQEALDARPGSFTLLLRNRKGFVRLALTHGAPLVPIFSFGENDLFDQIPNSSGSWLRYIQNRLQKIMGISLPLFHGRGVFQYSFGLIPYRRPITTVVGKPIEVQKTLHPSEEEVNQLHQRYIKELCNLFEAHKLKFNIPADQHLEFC

For the molecule `C[C@@H](NS(C)(=O)=O)c1ccc(CNC[C@@H]2CO[C@@H](c3ccccc3)CO2)cc1`, the IC50 (usually the midpoint of a concentration-inhibition curve) is 294 nM.
